# Measured values: PubChem BioAssay (NCI)
#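 Step 1: Grow cells in 96-well plates. Step 2: Expose to compound for 48 hours at 5 concentrations. Step 3: Interpolate endpoints linearly; if unreached, use highest concentration. The concentration for 50% growth inhibition is given as GI50. Definition used: TGI = concentration required for complete inhibition of growth.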
# Tests used:
# Assay in all cases: DTP human tumour cell line panel, 48 h
# SN12C renal = tested on: SN12C renal
# ACHN renal = tested on: ACHN renal
# OVCAR-5 ovarian = tested on: OVCAR-5 ovarian
# CAKI-1 renal = tested on: CAKI-1 renal
# COLO 205 colon = tested on: COLO 205 colon
# LXFL 529 NSCLC = tested on: LXFL 529 NSCLC
# HOP-18 NSCLC = tested on: HOP-18 NSCLC
# DMS 114 small cell lung = tested on: DMS 114 small cell lung
# SNB-78 CNS = tested on: SNB-78 CNS
# NCI-H522 lung = tested on: NCI-H522 lung
Compound,TGI (SN12C renal) [µM],TGI (ACHN renal) [µM],TGI (OVCAR-5 ovarian) [µM],TGI (CAKI-1 renal) [µM],TGI (COLO 205 colon) [µM],TGI (LXFL 529 NSCLC) [µM],TGI (HOP-18 NSCLC) [µM],TGI (DMS 114 small cell lung) [µM],TGI (SNB-78 CNS) [µM],TGI (NCI-H522 lung) [µM],GI50 (SN12C renal) [µM],GI50 (ACHN renal) [µM],GI50 (CAKI-1 renal) [µM],GI50 (COLO 205 colon) [µM],GI50 (LXFL 529 NSCLC) [µM],GI50 (HOP-18 NSCLC) [µM],GI50 (SNB-78 CNS) [µM],GI50 (NCI-H522 lung) [µM],GI50 (OVCAR-5 ovarian) [nM],GI50 (DMS 114 small cell lung) [µM]
CCc1ccccc1NC(=O)C(=O)CC(=O)c1sc(Nc2ccccc2)nc1C,> 100,> 100,> 100,> 100,> 100,> 100,> 100,> 100,> 100,> 100,,,,,,,,,,
Cc1cc(N(CCC#N)CCC#N)ccc1N=Nc1cccc(C(=O)O)c1,> 100,> 100,> 100,> 100,> 100,> 100,> 100,> 100,> 100,> 100,,,,,,,,,,
O=c1/c(=C/c2ccccc2F)sc2nc3ccccc3n12,> 100,> 100,> 100,> 100,,> 100,,> 100,> 100,> 100,,,,,,,,,,
CCCC(=O)OC1C(C(O)CO)OC2OC(C)(C)OC21 (stereo unspecified),> 100,> 100,> 100,> 100,> 100,,> 100,> 100,> 100,> 100,,,,,,,,,,
CC1=C(C)C(=O)c2c(cc3ccccn23)C1=O,27.1,> 100,92.6,,34.5,28.6,68.2,26.9,77.5,,,,,,,,,,,
CC1=C(Oc2ccccc2)C(CCC(=O)O)c2c(O)cc(Cl)c(O)c21 (stereo unspecified),> 100,,,> 100,> 100,,,> 100,> 100,> 100,,,,,,,,,,
CCOc1ccc(NC(=O)C(=O)CC(=O)C2=C(C)Nc3ccccc3S2)cc1,> 50,> 50,> 50,> 50,> 50,,> 50,> 50,,> 50,,,,,,,,,,
COc1cc(OC(C)=O)cc2c(OC(C)=O)ccc(OC(C)=O)c12,> 100,> 100,> 100,> 100,,> 100,,,> 100,> 100,,,,,,,,,,
C1C[OH+]CC[OH+]CCNCC[OH+]CC[OH+]CCN1.N.[Cl-].[Pt+4],> 100,44,,37.8,> 100,64,> 100,,63.3,48.1,18.7,4.33,7.5,36.7,18.2,19.9,4.15,12.9,,
C=CCC[CH2][Sn]([c]1ccccc1)([c]1ccccc1)[c]1ccccc1,2.95,3.07,2.35,3.18,3,2.63,4.51,,4.83,2.49,1.57,1.66,1.52,1.64,1.35,2.59,1.73,1.19,1120,
COC(C(=O)[O][Ge]([CH3])([CH3])[CH3])c1ccccc1 (stereo unspecified),> 100,> 100,> 100,> 100,> 100,> 100,,> 100,> 100,> 100,> 100,> 100,> 100,> 100,> 100,,> 100,> 100,> 100000,> 100
O=C(NCCCCCCNC(=O)n1cc(F)c(=O)[nH]c1=O)NCCCOCCOCCOCCOCCOCCOCCOCCOCCOCCOCCOCCOCCOCCOCCOCCOCCOCCOCCOCCOCCOCCCNC(=O)C(O)C(O)C(O)C(O)CO (stereo unspecified),> 100,> 100,> 100,> 100,> 100,,> 100,> 100,> 100,> 100,,,,,,,,,,
CCOC(=O)COc1ccccc1/C=C1\CCC(CN(C)C)C1=O (stereo unspecified),14.1,26.9,32.4,10.9,11.1,6.36,37.9,24.2,62.6,6.01,,,,,,,,,,
Cc1ccc(NC(=O)C(=O)C(C#N)c2ccccc2C)cc1C (stereo unspecified),> 100,> 100,> 100,> 100,> 67.3,> 100,> 100,> 59.2,> 100,> 100,,,,,,,,,,
COc1ccc(OC)c(NC(=O)C2=C(C)NC(C)=C(C(=O)Nc3cc(OC)ccc3OC)C2c2ccccc2)c1,> 100,> 100,> 100,> 100,> 100,> 100,> 100,> 100,> 100,> 100,,,,,,,,,,
CN(C)C(=O)OC(Cn1cncn1)c1ccc(Cl)cc1Cl (stereo unspecified),> 100,> 100,> 100,> 100,> 100,> 100,> 100,> 100,> 100,> 100,,,,,,,,,,
NNC(=O)/C(=C/c1ccc(Cl)cc1Cl)NC(=O)c1ccccc1,> 100,> 100,> 100,> 100,> 100,> 100,> 100,> 100,> 100,> 100,,,,,,,,,,
Cc1ccc(C(=O)c2nnc(C(=O)c3ccc(C)cc3)nn2)cc1,> 100,> 100,> 100,> 100,> 100,> 100,> 100,,> 100,> 100,,,,,,,,,,
CC1(C)C(=NNC(=O)C[N+](C)(C)C)C(C)(C)C1=NNC(=O)C[N+](C)(C)C,> 100,> 100,> 100,> 100,> 100,> 100,> 100,> 100,> 100,> 100,,,,,,,,,,
Cc1c(C(=O)C/C(=N\O)C(=O)Nc2cc(Cl)c(Cl)cc2Cl)[n+](=O)c2ccccc2n1[O-],18.9,67.5,39.6,> 100,12.6,30.8,82.4,19.9,> 100,16.2,,,,,,,,,,
